Reference: patent US20060002922A1, “Method for preventing or treating obesity by modulating the activities of the pentose phosphate patway” (Minkon Biotechnology, Inc., priority 2004, published 2006)

Tests used:
[1] = test system: normal as well as fatty mice; assay: Higher dosage of OT: weight loss in normal and fatty mice; assay type: in vivo
Description: This is consistent with the result obtained from the published result of TKT haplo-insufficiency mice.

tumors in animals = settings: 100-400 mg/kg of OT; cited from earlier work
[2] = test system: liver, heart and kidney of mice hosting Ehrlich's tumor; settings: 400 mg/kg/day of OT; cited from earlier work
[3] = test system: C57BL/6 mice fed with D12492; assay: Diet-induced obesity in C57BL/6 mice fed high fat diet D12492, oral OT; assay type: in vivo
Method: D12492 is a very high fat containing diet (with 60 kcal % fat), and has been widely used to induce obesity in rodents.
A dose of 10-20 mg/kg/day of OT was administered orally to C57BL/6 mice fed with D12492. […] In contrast, the control mice developed obesity.
4 groups of C57BL/6 mice (5 mice each group) were used to test the dosage dependence of oxythiamine on weight control. The negative control was fed a regular diet, and positive group was fed a high fat diet only. Test groups were fed high fat diet and each orally administered with OT at a concentration of 2 mg/kg/day or 10 mg/kg/day.

Cc1ncc(C[n+]2csc(CCO)c2C)c(=O)[nH]1 [OT, Oxythiamine]
effect on body weight ([1]; 180 mg/kg/day, normal as well as fatty mice): strong effect of weight loss | fat mass ([1]; OT fed mice): Preferential reduction of fat mass | treatment of tumors in animals (tumors in animals): successfully used to treat tumors | histotoxicity (signs of toxicity in liver, heart and kidney vs controls) [2]: No signs of toxicity were observed | development of diet-induced obesity ([3]; 10-20 mg/kg/day orally, C57BL/6 mice fed D12492, control mice developed obesity): Diet-induced obesity was not developed | pathological studies of OT treated mice ([3]; FIG. 1 study, high fat diet plus OT): near normal | progression of obesity development ([3]; OT as low as 2 mg/kg/day): reduce the progression of obesity development significantly | dosage dependence of prevention of weight gain ([3]; mice fed D12492, test groups 2 or 10 mg/kg/day orally): dosage dependent effects on preventing weight gain | growth rate compared to same age mice fed a standard diet ([3]; mice fed D12492 plus OT): normal growth rate
